From PMC11684029, “Discovery of VU6024578/BI02982816: An mGlu1 Positive Allosteric Modulator with Efficacy in Preclinical Antipsychotic and Cognition Models” (Journal of Medicinal Chemistry, 2024)
“Also recorded” adds a separate entry of the source. Read-outs that look alike come from different tables or passages of the source.

Legend:
rat mGlu1 = rat mGlu1 (Rattus norvegicus, UniProt P23385); assay: mGlu1 calcium mobilization PAM assay; format: cell-based
mGlu1 = mGlu1 (Mus musculus, UniProt P97772); assay: mGlu1 PAM assay, mouse receptor; format: cell-based; conditions: n = 5
mGlu1, sequence (P97772 21-1199): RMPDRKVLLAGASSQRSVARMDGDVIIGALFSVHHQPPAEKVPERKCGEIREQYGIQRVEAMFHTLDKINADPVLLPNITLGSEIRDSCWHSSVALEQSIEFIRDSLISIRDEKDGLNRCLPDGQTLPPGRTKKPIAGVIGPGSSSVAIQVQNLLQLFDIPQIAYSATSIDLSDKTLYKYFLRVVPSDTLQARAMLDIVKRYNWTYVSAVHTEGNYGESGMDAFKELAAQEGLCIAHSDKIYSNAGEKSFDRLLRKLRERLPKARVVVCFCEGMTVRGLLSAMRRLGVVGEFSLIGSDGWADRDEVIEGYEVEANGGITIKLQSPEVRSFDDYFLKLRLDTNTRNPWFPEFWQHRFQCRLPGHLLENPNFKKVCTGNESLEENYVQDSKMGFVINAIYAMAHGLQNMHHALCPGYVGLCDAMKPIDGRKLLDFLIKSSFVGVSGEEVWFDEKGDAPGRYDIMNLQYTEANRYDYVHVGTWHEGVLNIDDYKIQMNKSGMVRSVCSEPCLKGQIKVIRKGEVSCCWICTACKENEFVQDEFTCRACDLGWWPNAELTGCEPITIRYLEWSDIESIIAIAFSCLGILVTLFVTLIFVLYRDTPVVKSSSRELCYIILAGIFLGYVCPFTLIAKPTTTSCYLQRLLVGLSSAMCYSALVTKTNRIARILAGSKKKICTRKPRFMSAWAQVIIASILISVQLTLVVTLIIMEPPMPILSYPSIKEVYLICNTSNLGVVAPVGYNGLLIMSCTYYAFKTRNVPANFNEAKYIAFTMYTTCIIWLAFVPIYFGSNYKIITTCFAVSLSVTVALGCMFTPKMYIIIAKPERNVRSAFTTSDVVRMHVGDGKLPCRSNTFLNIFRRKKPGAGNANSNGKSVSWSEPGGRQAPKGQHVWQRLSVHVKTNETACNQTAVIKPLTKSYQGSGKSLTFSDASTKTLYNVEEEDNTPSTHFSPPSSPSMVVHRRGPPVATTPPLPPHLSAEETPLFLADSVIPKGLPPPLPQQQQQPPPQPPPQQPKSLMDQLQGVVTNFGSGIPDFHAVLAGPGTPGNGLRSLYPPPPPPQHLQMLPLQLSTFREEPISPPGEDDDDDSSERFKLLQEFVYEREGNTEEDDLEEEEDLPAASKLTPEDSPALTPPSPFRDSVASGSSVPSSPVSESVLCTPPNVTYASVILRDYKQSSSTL
Description: (§1) Over the course of the mGlu1 PAM program, 19d became an assay standard and was assayed multiple times, affording refined potency values.[20]

human mGlu2–5,7,8 = assay: mGlu subtype selectivity; format: cell-based
Description: as §1

rat mGlu2–5,7,8 = assay: mGlu subtype selectivity; format: cell-based; conditions: inactive
Description: as §1

5-HT2B = 5-HT2B (Homo sapiens, UniProt P41595); assay: follow-up functional assay; format: biochemical
5-HT2B, sequence (P41595 whole entry): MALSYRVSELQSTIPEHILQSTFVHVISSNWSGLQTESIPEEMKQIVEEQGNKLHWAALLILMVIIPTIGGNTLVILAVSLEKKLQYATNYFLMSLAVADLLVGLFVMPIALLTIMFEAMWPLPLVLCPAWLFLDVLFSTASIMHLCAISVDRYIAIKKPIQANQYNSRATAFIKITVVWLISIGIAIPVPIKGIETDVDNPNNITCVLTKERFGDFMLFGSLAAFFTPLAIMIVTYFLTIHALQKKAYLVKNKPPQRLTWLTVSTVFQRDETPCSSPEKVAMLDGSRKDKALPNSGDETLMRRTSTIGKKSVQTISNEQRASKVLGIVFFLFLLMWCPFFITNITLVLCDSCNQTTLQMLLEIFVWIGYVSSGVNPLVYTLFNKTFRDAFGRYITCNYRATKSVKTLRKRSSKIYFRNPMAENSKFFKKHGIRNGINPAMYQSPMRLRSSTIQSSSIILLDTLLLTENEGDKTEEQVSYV

4-strain ± S9 = assay: Ames test
[1] = plasma protein binding, equilibrium dialysis; format: in vitro ADME, rat; conditions: fraction unbound
Description: (§2) The protein binding of each compound was determined in plasma via equilibrium dialysis employing RED Plates (ThermoFisher Scientific, Rochester, NY). Plasma was added to the 96 well plate containing test compound and mixed thoroughly for a final concentration of 5 μM. Subsequently, an aliquot of the plasma-compound mixture was transferred to the cis chamber (red) of the RED plate, with an phosphate buffer (25 mM, pH 7.4) in the trans chamber. The RED plate was sealed and incubated for 4 h at 37 °C with shaking. At completion, aliquots from each chamber were diluted 1:1 with either plasma (cis) or buffer (trans) and transferred to a new 96 well plate, at which time ice-cold acetonitrile containing internal standard (50 ng/mL carbamazepine) (2 volumes) was added to extract the matrices. The plate was centrifuged (3000 rcf, 10 min) and supernatants transferred and diluted 1:1 (supernatant: water) into a new 96 well plate, which was then sealed in preparation for LC/MS/MS analysis. Each compound was assayed in triplicate within the same 96-well plate. Fraction unbound was determined using the following equation [drawing 1]

plasma protein binding = format: in vitro ADME
Description: as §2

[2] = metabolite identification; format: in vitro ADME; conditions: ± NADPH; for metabolites of the furanyl ring: 60 min; for parent in 60 min samples: UV peak areas
Description: (§3) Across species, 19d had acceptable fraction unbound in both plasma (fu (plasma): 0.03 (human), 0.041 (rat), 0.025 (cyno), 0.039 (dog) and 0.056 (mouse)) and brain (fu (brain): 0.034 (rat) and 0.081 (mouse)).
Figure 5 Metabolite identification of VU6024578 (19d) in rat and human liver microsomes. […] Thus, we incubated 19d in rat and human liver microsomes (with and without NADPH) for 60 min and monitored by both extracted ion and UV detection for the production of metabolites and consumption of parent.

[3] = glutathione trapping of reactive intermediates; format: in vitro ADME
Description: as §3
In Vitro Glutathione Conjugates of 19d
Figure S1. 19d was incubated in rat and human liver microsomes for 1 hr (with and without
NADPH) with 20 µM glutathione.
conjugates, most likely due to reactive intermediate formation from the 2-furanyl southern […]

rats = assay: rotarod; format: in vivo; conditions: rat, doses up to 10 mg/kg
Description: In order to enable our target validation work, we first profiled PAM 19d in a rat locomotor battery to ensure that pharmacodynamic efficacy was not mistaken for gross effects on locomotion.[20] […] PK was performed in parallel to establish a PK/PD relationship.[24]
On the first day, the animals were placed on the rotarod apparatus which was rotating at a speed of 20 rpm. If the rats fall of the bar, the animals were placed back on the apparatus for a total of 2 min. On the day of testing, adult male rats were pretreated with VU6024578 (1–10 mg/kg) 65 min before being placed on the rotarod apparatus. Testing consisted of accelerating rotarod from 4 to 40 rpm over 5 min. The time and final speed when the rats fall off of the apparatus was recorded.

satellite PK for NOR = format: in vivo; conditions: brain, rat, 210 min postdose
Source text: Based on our previous work with the mGlu1 PAM 4,[6]−[9],[14]−[19] we first evaluated the ability of 19d to reverse MK-801 disruptions of novel object recognition (NOR) in rats (Figure 6).

[4] = tested on: Adrenergic alpha 1 (non-selective); assay: Eurofins radioligand binding panel; parameters: species or system rat; conditions: antagonist radioligand
Source text: (§4) Table S1. Eurofins Lead Profiling Screen Data
(§5) This is a radioligand binding panel of 80 targets including GPCRs, ion channels, transporters and nuclear hormones. Biochemical assay results are presented as the percent inhibition of specific […]
(§6) Results showing an inhibition or stimulation higher than 50% are considered to represent significant effect and are highlighted […]
(§7) Target / Protein Species % Inhibition at 10 […]

[5] = tested on: Adrenergic alpha 2 (non-selective); assay: Eurofins radioligand binding panel; parameters: species or system rat; conditions: antagonist radioligand
Source text: as §4, §5, §6, §7

BB (non-selective) = assay: Eurofins radioligand binding panel; parameters: species or system rat; conditions: agonist radioligand
Source text: as §4, §5, §6, §7

PDGF = assay: Eurofins radioligand binding panel; parameters: species or system mouse; conditions: agonist radioligand
Source text: as §4, §5
(§8) Results showing an inhibition or stimulation higher than 50% are considered to represent significant effect and are highlighted

sst (non-selective) = assay: Eurofins radioligand binding panel; parameters: species or system mouse; conditions: agonist radioligand
Source text: as §4, §5, §8

5-HT1A = molecular target: T1, 5-HT1A (Homo sapiens, UniProt P08908); assay: Eurofins radioligand binding panel; conditions: agonist radioligand
T1 construct: Eurofins
T1 sequence (P08908 whole entry): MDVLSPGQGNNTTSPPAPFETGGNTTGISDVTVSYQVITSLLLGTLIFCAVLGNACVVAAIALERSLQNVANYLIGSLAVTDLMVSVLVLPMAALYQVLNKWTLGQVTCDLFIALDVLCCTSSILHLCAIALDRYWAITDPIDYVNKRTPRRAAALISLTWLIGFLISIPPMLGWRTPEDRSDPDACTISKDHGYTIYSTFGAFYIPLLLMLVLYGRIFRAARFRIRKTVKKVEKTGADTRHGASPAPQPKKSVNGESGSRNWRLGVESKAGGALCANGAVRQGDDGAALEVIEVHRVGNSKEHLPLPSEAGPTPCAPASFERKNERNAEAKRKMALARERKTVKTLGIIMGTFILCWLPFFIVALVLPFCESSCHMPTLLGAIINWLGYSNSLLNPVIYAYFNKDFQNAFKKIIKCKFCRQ
Source text: as §4, §5, §6
(§9) Target / Protein Species % Inhibition at 10
(§10) Adenosine A1 (antagonist radioligand) human 8
(§11) Adenosine A2A (agonist radioligand) human -1
(§12) Adenosine A3 (agonist radioligand) human 23
(§13) Adrenergic alpha 1 (non-selective) (antagonist radioligand) rat 19
(§14) Adrenergic alpha 2 (non-selective) (antagonist radioligand) rat 1
(§15) Adrenergic beta 1 (agonist radioligand) human 1
(§16) Adrenergic beta 2 (antagonist radioligand) human -1
(§17) AT1 (antagonist radioligand) human -1
(§18) AT2 (agonist radioligand) human 2 […]
(§19) BB (non-selective) (agonist radioligand) rat -20
(§20) B2 (agonist radioligand) human 7
(§21) CGRP (agonist radioligand) human 1
(§22) CB1 (agonist radioligand) human 0
(§23) CCK1 (CCKA) (agonist radioligand) human 7
(§24) CCK2 (CCKB) (agonist radioligand) human -4

EP4 = molecular target: T2, EP4 (Homo sapiens, UniProt P35408); assay: Eurofins radioligand binding panel; conditions: agonist radioligand
T2 construct: Eurofins
T2 sequence (P35408 whole entry): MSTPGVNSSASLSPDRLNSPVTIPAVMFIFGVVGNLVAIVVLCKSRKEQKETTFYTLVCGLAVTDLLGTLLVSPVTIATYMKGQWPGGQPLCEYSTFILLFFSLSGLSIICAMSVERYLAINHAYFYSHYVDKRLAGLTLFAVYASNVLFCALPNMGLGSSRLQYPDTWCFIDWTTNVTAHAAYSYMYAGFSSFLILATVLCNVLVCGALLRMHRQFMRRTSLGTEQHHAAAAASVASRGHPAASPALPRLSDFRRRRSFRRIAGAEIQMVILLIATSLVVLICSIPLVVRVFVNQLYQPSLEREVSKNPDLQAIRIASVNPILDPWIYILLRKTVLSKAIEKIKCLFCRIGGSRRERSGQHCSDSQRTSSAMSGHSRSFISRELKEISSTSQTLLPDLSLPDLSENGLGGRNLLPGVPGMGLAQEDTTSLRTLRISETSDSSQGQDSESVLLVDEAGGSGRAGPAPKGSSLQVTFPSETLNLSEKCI
Source text: as §4, §5, §6, §9, §10, §11, §12, §13, §14, §15, §16, §17, §18, §19, §20, §21, §22, §23, §24

rat mGlu1, sequence (P23385 19-1199): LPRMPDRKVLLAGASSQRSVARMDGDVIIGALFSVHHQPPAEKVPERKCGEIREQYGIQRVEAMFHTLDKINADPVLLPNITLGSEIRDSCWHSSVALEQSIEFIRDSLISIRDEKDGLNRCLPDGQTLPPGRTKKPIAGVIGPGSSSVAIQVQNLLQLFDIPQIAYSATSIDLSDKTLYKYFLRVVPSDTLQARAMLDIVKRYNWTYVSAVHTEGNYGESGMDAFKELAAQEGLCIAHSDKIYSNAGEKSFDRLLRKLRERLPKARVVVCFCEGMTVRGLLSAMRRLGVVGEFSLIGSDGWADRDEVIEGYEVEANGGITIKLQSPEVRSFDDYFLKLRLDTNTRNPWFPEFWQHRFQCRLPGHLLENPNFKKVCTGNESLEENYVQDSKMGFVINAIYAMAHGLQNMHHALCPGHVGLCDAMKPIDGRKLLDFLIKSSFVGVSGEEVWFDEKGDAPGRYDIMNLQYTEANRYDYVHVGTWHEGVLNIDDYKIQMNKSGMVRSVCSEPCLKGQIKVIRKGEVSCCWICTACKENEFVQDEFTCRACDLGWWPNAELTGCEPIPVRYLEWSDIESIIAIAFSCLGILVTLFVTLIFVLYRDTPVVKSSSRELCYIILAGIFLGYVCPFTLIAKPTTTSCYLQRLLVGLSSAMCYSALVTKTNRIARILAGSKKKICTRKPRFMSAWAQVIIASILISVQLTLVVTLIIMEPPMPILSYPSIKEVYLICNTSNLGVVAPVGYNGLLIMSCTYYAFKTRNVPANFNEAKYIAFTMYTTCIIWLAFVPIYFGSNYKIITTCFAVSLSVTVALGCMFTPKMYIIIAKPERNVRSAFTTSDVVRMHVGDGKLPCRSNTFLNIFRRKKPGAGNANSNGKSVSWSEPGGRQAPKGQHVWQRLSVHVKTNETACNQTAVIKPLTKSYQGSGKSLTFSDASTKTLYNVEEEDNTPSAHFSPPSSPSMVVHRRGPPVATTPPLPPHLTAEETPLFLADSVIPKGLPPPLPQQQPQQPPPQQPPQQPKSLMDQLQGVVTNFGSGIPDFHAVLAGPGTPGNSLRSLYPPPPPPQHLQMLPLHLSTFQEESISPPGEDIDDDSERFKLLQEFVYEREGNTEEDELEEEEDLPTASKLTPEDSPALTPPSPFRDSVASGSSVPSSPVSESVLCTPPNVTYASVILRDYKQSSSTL

Compound: Cn1nc(-c2ccnn2C)cc1CNC(=O)c1cc(-c2ccco2)ccc1Cl [Compound 19d, 2-Chloro-N-((1,2′-dimethyl-1H,2’H-[3,3′-bipyrazol]-5-yl)methyl)-5-(furan-2-yl)benzamide]
- EC50 (rat mGlu1; PAM, calcium flux): 0.046 µM
- rat mGlu1 Glumax (rat mGlu1; PAM, calcium flux): 124%
- rat mGlu1 pEC50 (rat mGlu1; n = 110): 7.39 ± 0.02
- EC50 (mGlu1): 0.027 µM
- mouse mGlu1 Glumax (mGlu1): 89%
- mouse mGlu1 pEC50 (mGlu1): 7.59 ± 0.07
- activity against human mGlu2–5,7,8 (human mGlu2–5,7,8; inactive): > 30 µM
- activity on mGlu2–5,7,8, in words (human mGlu2–5,7,8; species not given): inactive
- activity against rat mGlu2–5,7,8 (rat mGlu2–5,7,8): > 30 µM
- functional activity at 5-HT2B (5-HT2B): inactive
- Ames test result (4-strain ± S9): negative
- rat fuplasma [1]: 0.041
- fraction unbound at 4 h, 5 μM (plasma protein binding; cynomolgus monkey, pH 7.4, read-out: fu (plasma), cyno): 0.025
- fraction unbound at 4 h, 5 μM (plasma protein binding; dog, pH 7.4, read-out: fu (plasma), dog): 0.039
- fraction unbound at 4 h, 5 μM (plasma protein binding; mouse, pH 7.4, read-out: fu (plasma), mouse): 0.056
- metabolites of the furanyl ring ([2]; human liver microsomes): no metabolites corresponding to oxidation or opening of the furanyl ring were detected
- parent in 60 min samples ([2]; human liver microsomes): major component observed
- metabolites of the furanyl ring ([2]; rat liver microsomes): no metabolites corresponding to oxidation or opening of the furanyl ring were detected
- parent in 60 min samples ([2]; rat liver microsomes): major component observed
- glutathione conjugates ([3]; human liver microsomes with glutathione): multiple glutathione; also recorded: a number of minor glutathione conjugates with four involving the furanyl ring
- glutathione conjugates ([3]; rat liver microsomes with glutathione): multiple glutathione; also recorded: a number of minor glutathione conjugates with four involving the furanyl ring
- rotarod (rats): lack of effect
- concentration at 210 min (satellite PK for NOR; 10 mg/kg PO, read-out: free brain concentration): 73 nM
- Kp at 3.5 h (satellite PK for NOR; PO): 0.34
- % Inhibition at 10 µM [4]: 19%
- % Inhibition at 10 µM [5]: 1%
- % Inhibition at 10 µM (BB (non-selective)): -20%
- % Inhibition at 10 µM (PDGF): -2%
- % Inhibition at 10 µM (sst (non-selective)): -12%
- inhibition at 10 µM (5-HT1A): 51%
- inhibition at 10 µM (EP4): 62%
